From patent US20140073634A1 (Institute For Applied Cancer Science/The University of …, priority 2012, published 2014)

Tested on: 293T-HRE-GFP-luc cells
Experiment: Cell-based reporter assay for IC50 determinations (HRE-luciferase, hypoxia)
Details: 6 hrs hypoxia (1% O2), luminescence
Experimental: Cell-Based Reporter Assay for IC50 Determinations
293T-HRE-GFP-luc cells were routinely maintained in DMEM media (high glucose version with GlutaMAX and HEPES, Gibco, catalog #10564) supplemented with 10% fetal bovine serum and 2 μg/mL puromycin (Invitrogen, catalog #A11138-03) using a humidified incubator (normoxia conditions consisting of 37° C., 5% CO2 and ambient O2).
In preparation for the reporter assay, cells were harvested and resuspended in DMEM media (high glucose version with GlutaMAX and HEPES) supplemented with 10% fetal bovine serum. Cells were inoculated into 384-well white Culturplates (Perkin Elmer catalog #6007680) at a density of 12,000 cells/well in a volume of […]. The microplates were incubated overnight (approximately 17-19 hours) at 37° C. with 5% CO2 and ambient O2. Stock solutions of the test compounds were prepared in DMSO (Sigma, Catalog #D2650) and serially diluted 1:3 using DMSO. Compounds were additionally diluted (1:50) with culturemedium and 10 µL were added per well to the Culturplate. Following a 30 min. incubation under normoxia conditions, the plates were incubated in hypoxia for 6 hrs. (37° C., 5% CO2 and 1% O2). Steadylite Plus (Perkin Elmer, catalog #6016751) was then added ([…]), the plates were mixed on an orbital shaker at room temperature in the dark for 15 min., and luminescence was measured using an Envision plate reader (Perkin Elmer). IC50 values were calculated using a four-parameter logistic curve fit. Results are shown below in Table 2; ND indicates no data.

## O=c1ccc(-c2nc(-c3ccc(OC(F)(F)F)cc3)no2)cn1Cc1cccc(OCC(O)CO)c1 (stereo not shown) [Example 55, 1-(3-(2,3-Dihydroxypropoxy)benzyl)-5-(3-(4-(trifluoromethoxy)phenyl)-1,2,4-oxadiazol-5-yl)pyridin-2(1H)-one]
6 h
  IC50: < 0.1 µM

## CC(C)=Cc1cccc(Cn2cc(-c3nc(-c4ccc(OC(F)(F)F)cc4)no3)ccc2=O)c1 [Example 56, 1-(3-(2-methylprop-1-enyl)benzyl)-5-(3-(4-(trifluoromethoxy)phenyl)-1,2,4-oxadiazol-5-yl)pyridin-2(1H)-one]
6 h
  IC50: < 0.1 µM

## CC(C)(O)C(O)c1cccc(Cn2cc(-c3nc(-c4ccc(OC(F)(F)F)cc4)no3)ccc2=O)c1 (stereo not shown) [Example 57, 1-(3-(1,2-Dihydroxy-2-methylpropyl)benzyl)-5-(3-(4-(trifluoromethoxy)phenyl)-1,2,4-oxadiazol-5-yl)pyridin-2(1H)-one]
6 h
  IC50: < 0.1 µM

## O=c1ccc(-c2nc(-c3ccc(OC(F)(F)F)cc3)no2)cn1Cc1cccc(N2CCC(O)CC2)c1 [Example 58, 1-(3-(4-Hydroxypiperidin-1-yl)benzyl)-5-(3-(4-(trifluoromethoxy)phenyl)-1,2,4-oxadiazol-5-yl)pyridin-2(1H)-one]
6 h
  IC50: < 0.1 µM

## O=c1ccc(-c2nc(-c3ccc(OC(F)(F)F)cc3)no2)cn1Cc1cccc(N2CCNCC2)c1 [Example 59, 1-(3-(piperazin-1-yl)benzyl)-5-(3-(4-(trifluoromethoxy)phenyl)-1,2,4-oxadiazol-5-yl)pyridin-2(1H)-one]
6 h
  IC50: < 0.1 µM

## O=C(CO)N1CCN(c2cccc(Cn3cc(-c4nc(-c5ccc(OC(F)(F)F)cc5)no4)ccc3=O)c2)CC1 [Example 60]
6 h
  IC50: < 0.1 µM

## CS(=O)(=O)N1CCN(c2cccc(Cn3cc(-c4nc(-c5ccc(OC(F)(F)F)cc5)no4)ccc3=O)c2)CC1 [Example 61]
6 h
  IC50: < 0.1 µM

## NCC(O)COc1cccc(Cn2cc(-c3nc(-c4ccc(OC(F)(F)F)cc4)no3)ccc2=O)c1 (stereo not shown) [Example 62, 1-(3-(3-Amino-2-hydroxypropoxy)benzyl)-5-(3-(4-(trifluoromethoxy)phenyl)-1,2,4-oxadiazol-5-yl)pyridin-2(1H)-one]
6 h
  IC50: < 0.1 µM

## CN1CCN(c2cccc(Cn3cc(-c4nc(-c5ccc(C(F)(F)F)cc5)no4)ccc3=O)c2)CC1 [Example 63, 1-(3-(4-Methylpiperazin-1-yl)benzyl)-5-(3-(4-(trifluoromethyl)phenyl)-1,2,4-oxadiazol-5-yl)pyridin-2(1H)-one]
6 h
  IC50: < 0.1 µM

## COCCOc1cccc(Cn2cc(-c3noc(-c4ccc(C(F)(F)F)cc4)n3)ccc2=O)c1 [Example 65, 1-(3-(2-Methoxyethoxy)benzyl)-5-(5-(4-(trifluoromethyl)phenyl)-1,2,4-oxadiazol-3-yl)pyridin-2(1H)-one]
  IC50: 0.1 to 1 µM

## COCCOc1cccc(Cn2cc(-c3noc(-c4ccc(N5CCCS5(=O)=O)cc4)n3)ccc2=O)c1 [Example 66, 5-(5-(4-(1,1-Dioxidoisothiazolidin-2-yl)phenyl)-1,2,4-oxadiazol-3-yl)-1-(3-(2-methoxyethoxy)benzyl)pyridin-2(1H)-one]
6 h
  IC50: 0.1 to 1 µM

## COCCOc1cccc(Cn2cc(-c3noc(-c4ccc(C5CC5)cc4)n3)ccc2=O)c1 [Example 67, 5-(5-(4-Cyclopropylphenyl)-1,2,4-oxadiazol-3-yl)-1-(3-(2-methoxyethoxy)benzyl)pyridin-2(1H)-one]
6 h
  IC50: < 0.1 µM

## COCCOc1cccc(Cn2cc(-c3noc(-c4ccc(C(C)(C)C#N)cc4)n3)ccc2=O)c1 [Example 68, 2-(4-(3-(1-(3-(2-Methoxyethoxy)benzyl)-6-oxo-1,6-dihydropyridin-3-yl)-1,2,4-oxadiazol-5-yl)phenyl)-2-methylpropanenitrile]
6 h
  IC50: 0.1 to 1 µM

## CS(=O)(=O)CCCOc1cccc(Cn2cc(-c3noc(-c4ccc(OC(F)(F)F)cc4)n3)ccc2=O)c1 [Example 69, 1-(3-(3-(Methylsulfonyl)propoxy)benzyl)-5-(5-(4-(trifluoromethoxy)phenyl)-1,2,4-oxadiazol-3-yl)pyridin-2(1H)-one]
6 h
  IC50: < 0.1 µM

## COCCOc1cccc(Cn2cc(-c3noc(-c4ccc(C(C)(C)CO)cc4)n3)ccc2=O)c1 [Example 70, 5-(5-(4-(1-Hydroxy-2-methylpropan-2-yl)phenyl)-1,2,4-oxadiazol-3-yl)-1-(3-(2-methoxyethoxy)benzyl)pyridin-2(1H)-one]
6 h
  IC50: < 0.1 µM

## COCCOc1cccc(Cn2cc(-c3noc(-c4ccc(C5(C(F)(F)F)CC5)cc4)n3)ccc2=O)c1 [Example 71, 1-(3-(2-Methoxyethoxy)benzyl)-5-(5-(4-(1-(trifluoromethyl)cyclopropyl)phenyl)-1,2,4-oxadiazol-3-yl)pyridin-2(1H)-one]
6 h
  IC50: < 0.1 µM

## COCCOc1cccc(Cn2cc(-c3noc(-c4ccc(C(C)(C)COC)cc4)n3)ccc2=O)c1 [Example 72, 15-(5-(4-(1-Methoxy-2-methylpropan-2-yl)phenyl)-1,2,4-oxadiazol-3-yl)-1-(3-(2-methoxyethoxy)benzyl)pyridin-2(1H)-one]
6 h
  IC50: < 0.1 µM

## COCCOc1cccc(Cn2cc(-c3noc(-c4ccc(C(C)(C)O)cc4)n3)ccc2=O)c1 [Example 73, 5-(5-(4-(2-Hydroxypropan-2-yl)phenyl)-1,2,4-oxadiazol-3-yl)-1-(3-(2-methoxyethoxy)benzyl)pyridin-2(1H)-one]
6 h
  IC50: < 0.1 µM

## COCCOc1cccc(Cn2cc(-c3noc(-c4ccc(C5CCOCC5)cc4)n3)ccc2=O)c1 [Example 74, 1-(3-(2-Methoxyethoxy)benzyl)-5-(5-(4-(tetrahydro-2H-pyran-4-yl)phenyl)-1,2,4-oxadiazol-3-yl)pyridin-2(1H)-one]
6 h
  IC50: < 0.1 µM

## COCCOc1cccc(Cn2cc(-c3noc(-c4ccc(C5CCSCC5)cc4)n3)ccc2=O)c1 [Example 75, 1-(3-(2-Methoxyethoxy)benzyl)-5-(5-(4-(tetrahydro-2H-thiopyran-4-yl)phenyl)-1,2,4-oxadiazol-3-yl)pyridin-2(1H)-one]
6 h
  IC50: < 0.1 µM

## CC(C)Oc1ccc(-c2nc(-c3ccc(=O)n(Cc4cccc(C(C)(C)O)c4)c3)no2)cc1 [Example 76, 1-(3-(2-Hydroxypropan-2-yl)benzyl)-5-(5-(4-isopropoxyphenyl)-1,2,4-oxadiazol-3-yl)pyridin-2(1H)-one]
6 h
  IC50: < 0.1 µM

## CS(=O)(=O)C1CCN(c2cccc(Cn3cc(-c4noc(-c5ccc(N6CCOCC6)cc5)n4)ccc3=O)c2)CC1 [Example 77, 1-(3-(4-(Methylsulfonyl)piperidin-1-yl)benzyl)-5-(5-(4-morpholinophenyl)-1,2,4-oxadiazol-3-yl)pyridin-2(1H)-one]
6 h
  IC50: < 0.1 µM

## CC(C)Oc1ccc(-c2nc(-c3ccc(=O)n(Cc4cccc(N5CCC(S(C)(=O)=O)CC5)c4)c3)no2)cc1 [Example 78, 5-(5-(4-Isopropoxyphenyl)-1,2,4-oxadiazol-3-yl)-1-(3-(4-(methylsulfonyl)piperidin-1-yl)benzyl)pyridin-2(1H)-one]
6 h
  IC50: < 0.1 µM

## COCCOc1cccc(Cn2cc(-c3nc(-c4ccc(C5(O)CCCCC5)cc4)no3)ccc2=O)c1 [Example 80, 5-(3-(4-(1-Hydroxycyclohexyl)phenyl)-1,2,4-oxadiazol-5-yl)-1-(3-(2-methoxyethoxy)benzyl)pyridin-2(1H)-one]
6 h
  IC50: < 0.1 µM

## COCCOc1cccc(Cn2cc(-c3noc(-c4ccc(C(C)(C)OC)cc4)n3)ccc2=O)c1 [Example 81, 1-(3-(2-Methoxyethoxy)benzyl)-5-(5-(4-(2-methoxypropan-2-yl)phenyl)-1,2,4-oxadiazol-3-yl)pyridin-2(1H)-one]
6 h
  IC50: < 0.1 µM
